The test system of experiment [1] is primary neuronal cultures taken from the cerebral cortex of rats. Description: Neuroprotection in primary neuronal cultures exposed to OGD 4 h and 24 h reperfusion (MTT cell viability). The class given is cell-based. Conditions: for neuronal viability (versus 100% control): added at beginning of reperfusion, OGD 4 h, R24h. An excerpt:
The neuroprotective power of cholesteronitrones F2 and F3 has been determined in primary neuronal cultures, cultured from 6 to 8 days, taken from the cerebral cortex of rats (Quevedo, C, Salinas, M, Alcázar, A. Initiation factor 2B activity is regulated by protein phosphatase 1, which is activated by the mitogen-activated protein kinase-dependent pathway in insulin-like growth factor 1-stimulated neuronal cells. J. Biol. Chem. 2003, 278, 16579-16586), and subjected to oxygen-glucose deprivation (OGD) (Chioua M, Sucunza D, Soriano E, Hadjipavlou-Litina D, Alcázar A, Ayuso I, Oset-Gasque M J, González M P, Monjas L, Rodríguez-Franco M I, Marco-Contelles J, Samadi A. α-aryl-N-alkyl nitrones, as potential agents for stroke treatment: synthesis, theoretical calculations, antioxidant, anti-inflammatory, neuroprotective, and brain-blood barrier permeability properties. J Med Chem. 2012, 55, 153-168), according to the following protocol:
Cell viability was measured using 3-(4,5-dimethylthiazol-2-yl)-2,5-diphenyl tetrazolium bromide (MTT).
Cholesteronitrones F2 and F3, in a range of concentrations from 0.1 to 100 μM, and from 0.5 to 10 μM, respectively, were added at the beginning of the reperfusion period to evaluate their neuroprotective power, using citicoline, a well-known neuroprotective agent, as a reference compound (Adibhatla, R M, Hatcher, J F, Dempsey, R J. Citicoline: neuroprotective mechanisms in cerebral ischemia. J. Neurochem. 2002, 80, 12-23). Citicoline was tested at variable concentrations, between 1 μM and 1 mM, a neuroprotective effect being found at 10 and 100 μM (87.4 and 88.1%, respectively), the effect of 100 μM being significant compared with the value obtained at R24h (analysis of variance (ANOVA), p<0.0021; and p<0.01, post-Dunnett test].

The test system is the same in experiment [2]. In words: Long-term neuroprotection in neuronal cultures exposed to OGD 4 h and reperfusion for 5 d (R5d), MTT. The class given is cell-based. The procedure:
To evaluate the neuroprotective power of cholesteronitrones F2 and F3 against ischaemic damage in cultured neurons and simulate long-term reperfusion conditions, the cultures were exposed to OGD for 4 h, and the cells were then subjected to reperfusion for 5 d (R5d).
Cholesteronitrones F2 and F3 (at concentrations of 1.0 and 5.0 μM) were added at the beginning of the reperfusion period and after 48 h of reperfusion, to thus evaluate their long-term neuroprotective power, again using the reference molecule citicoline, according to the protocol of the MTT (see above).

The subject of experiment [3] is global ischaemia in adult rats. In words: Global ischaemia by four-vessel occlusion, neuronal death by Fluoro-Jade B after 5 d reperfusion. Format: in vivo. As to conditions: R5d, 0.1 mg/kg intraperitoneally. From the text:
(§1) Global ischaemia was induced in adult rats according to the conventional four-vessel occlusion method [(a) Martín de la Vega C, Burda J, Nemethova M, Quevedo C, Alcázar A, Martín M E, Salinas M. Possible mechanisms involved in the down-regulation of translation during transient global ischaemia in the rat brain. Biochem J 2001, 357, 819-826; (b) García-Bonilla L, Cid C, Alcázar A, Burda J, Ayuso I, Salinas M. Regulation proteins of eukaryotic initiation factor 2-alpha subunit (eIF2a) phosphatase, under ischemic reperfusion and tolerance. J Neurochem 2007, 103, 1368-1380; (c) Ayuso M I, Hernández-Jiménez M, Martín M E, Salinas M, Alcázar A. New hierarchical phosphorylation pathway of the translational repressor eIF4E-binding protein 1 (4E-BP1) in ischemia-reperfusion stress. J Biol Chem 2010, 285, 34355-34363].
(§2) Therefore, the two vertebral arteries were completely cauterized, and after 24 h ischaemia is induced by carotid occlusion by means of small clamps for 15 min; the clamps were then removed and reperfusion was performed. After 5 d (R5d), the animals were sacrificed. The animals were treated with cholesteronitrone F2, diluted in 10% ethanol in saline solution as a carrier, administered intraperitoneally from the beginning of the reperfusion period. Ten animals were tested; one of the five animals treated with carrier died 2 d after reperfusion. All the protocols used in the experiments with animals were performed according to the guidelines approved by the Ethics Committee of Hospital Ramón y Cajal (Madrid). In the model of four-vessel occlusion cerebral ischaemia in rats, after a brief period of ischaemia delayed neurodegeneration is produced in the CA1 region of the hippocampus [(a) Kirino T. Delayed neuronal death. Neuropathology 2000, 20, S95-S97; (b) Pulsinelli W A, Brierley J B, Plum F. Temporal profile of neuronal damage in a model of transient forebrain ischaemia. […]

Experiment [4] deals with global ischaemia in adult rats. Description: Global ischaemia by four-vessel occlusion, apoptosis by TUNEL method after 5 d reperfusion. Conditions: R5d. Format: in vivo.
From the text: as §1, §2

Setting [5] is: 1 μM, added at the beginning of reperfusion.
Where [6] appears, read: 5 μM, added at the beginning of reperfusion.

Consider three molecules from patent US10071106B2, “Steroidal nitrones for the treatment and prevention of a cerebral stroke or ischaemia, alzheimer and parkinson disease and amyotrophic lateral sclerosis” (FUNDACIÓN PARA LA INVESTIGACIÓN BIOMÉDICA DEL HOSPITAL …, priority 2013, dated 2018).

On to `CC(C)CCC[C@@H](C)[C@H]1CC[C@H]2[C@@H]3CCC4=C/C(=[N+](/C)[O-])CC[C@]4(C)[C@H]3CC[C@]12C` [cholesteronitrone F3, (Z)—N-((8S,9S,10R,13R,14S,17R)-10,13-dimethyl-17-((R)-6-methylheptan-2-yl)-7,8,9,11,12,13,14,15,16,17-decahydro-1H-cyclopenta[a]phenanthren-3(2H,6H,10H)-ylidene)methanamine oxide], for which the “Neuroprotection (%)” value in experiment [1] (0.5 μM, OGD conditions) is reported as less than 0%; in experiment [1] (1.0 μM, OGD conditions), 18.8 ± 1.1%; in experiment [1] (5.0 μM, OGD conditions), 21.7 ± 1.2%; in experiment [1] (10 μM, OGD conditions), 0.8 ± 0.07%. Moreover, the “significant increase of neuronal viability during reperfusion” value in experiment [1] (1 or 5 μM, compared with R24h) is listed as “not”. The “neuronal viability in R5d experiment (versus 100% control)” value in experiment [2] (setting [5]) is given as 105.6%; in experiment [2] (5 μM, added after 48 h of reperfusion), 97.8%; in experiment [2] (setting [6]) it was 118.6%.
As for `C[N+](C)(C)CCOP(=O)(O)OP(=O)([O-])OC[C@H]1O[C@@H](n2ccc(N)nc2=O)[C@H](O)[C@@H]1O` [citicoline, reference compound], the “neuronal viability (versus 100% control)” value is 87.4% in experiment [1] (10 μM) and 88.1% in experiment [1] (100 μM). Moreover, in experiment [1] (100 μM, OGD conditions), the “Neuroprotection (%)” value was 50.2 ± 1.26%. The “neuronal viability in R5d experiment (versus 100% control)” value is listed as 74.6% in experiment [2] (100 μM, added after 48 h of reperfusion) and 76.0% in experiment [2] (100 μM, added at the beginning of reperfusion).
Take `CC(C)CCC[C@@H](C)[C@H]1CC[C@H]2[C@@H]3CCC4=C/C(=[N+](\C)[O-])CC[C@]4(C)[C@H]3CC[C@]12C` [cholesteronitrone F2, (E)-N-((8S,9S,10R,13R,14S,17R)-10,13-dimethyl-17-((R)-6-methylheptan-2-yl)-7,8,9,11,12,13,14,15,16,17-decahydro-1H-cyclopenta[a]phenanthren-3(2H,6H,10H)-ylidene)methanamine oxide]: the “neuronal death, Fluoro-Jade B” value in experiment [3] (CA1 region, saline/carrier 70.4±2.4) is on record as 55.1±3.4 cells per field; in experiment [3] (cerebral cortex, carrier 6.7±3.5), 0±0.1 cells per field; in experiment [3] (lateral cortex, carrier 13.4±3.6) it was 6.3±2.2. Moreover, the “Neuroprotection (%)” value in experiment [1] (0.1 μM, OGD conditions) is on record as 9.6 ± 0.5%; in experiment [1] (0.5 μM, OGD conditions), 49.3 ± 3.6%; in experiment [1] (1.0 μM, OGD conditions), 54.3 ± 1.3 %; in experiment [1] (5.0 μM, OGD conditions), 80.7 ± 2.7 %; in experiment [1] (10 μM, OGD conditions), 47.2 ± 1.4%; in experiment [1] (50 μM, OGD conditions), less than 0%. Besides, the “Neuroprotection (%)” value in experiment [1] (100 μM, OGD conditions) was less than 0%. The “neuronal viability (versus 100% control)” value in experiment [1] (1 μM) turned out to be 89.1%; in experiment [1] (5 μM), 95.5%. In experiment [1] (5 μM, OGD conditions), the “neuroprotection compared with citicoline” value is listed as “significantly higher neuroprotection than that observed for citicoline”. The “neuronal apoptotic death, TUNEL-positive” value in experiment [4] (CA1 area, carrier 64.1±7.1) was 48.5±0.4 nuclei per field; in experiment [4] (cerebral cortex, carrier 7.2±3.8), 1±0.5 nuclei per field; in experiment [4] (lateral cortex, carrier 13.3±6.2), 4.3±1.4. Moreover, the “neuronal viability in R5d experiment (versus 100% control)” value in experiment [2] (1 μM, added after 48 h of reperfusion) amounted to 95.7%; in experiment [2] (setting [5]), 110.6%; in experiment [2] (setting [6]) it was 118.2%.
